This assay has as its target T1, HRP Type VIA (Armoracia rusticana, UniProt P00433).
T1 sequence (P00433 31-338): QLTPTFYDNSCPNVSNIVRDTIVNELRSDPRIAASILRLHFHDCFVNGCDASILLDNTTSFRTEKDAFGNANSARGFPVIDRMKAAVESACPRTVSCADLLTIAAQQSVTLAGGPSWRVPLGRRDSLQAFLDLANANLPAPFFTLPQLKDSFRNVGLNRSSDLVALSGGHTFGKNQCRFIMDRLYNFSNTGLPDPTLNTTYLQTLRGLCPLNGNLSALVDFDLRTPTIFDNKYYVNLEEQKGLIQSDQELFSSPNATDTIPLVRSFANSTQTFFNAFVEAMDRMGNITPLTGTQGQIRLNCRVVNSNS

The mark [1] stands for this setting: 0.01 mg/ml, 10µl test compound, control value in brackets not reported.
The mark [2] stands for this setting: 0.1 mg/ml, 10µl test compound, control value in brackets not reported.
Setting [3] is: 1 mg/ml, 10µl test compound, control value in brackets not reported.

Values joined by “and” are separate entries in the source; they are usually repeats but may differ in a detail not shown here. Equal entries are not always repeated. Where two headings read alike, the source gives them in different places.

Regarding `OB(O)c1ccc(Oc2ccccc2)cc1` [Compound 1010, 4-(phenoxy)benzeneboronic acid], the “(a) Decrease in background (without HRP with test cpd.)” value reads like this: (0.01 mg/ml, 10µl test compound) “Y”; (0.1 mg/ml, 10µl test compound) “Y”; (1 mg/ml, 10µl test compound) “Y”. For the same compound, the “(b) Increase in signal (with HRP, with test cpd.)” value (“(b) Increase in signal” below) is given as “N” (0.01 mg/ml, 10µl test compound); “N” (0.1 mg/ml, 10µl test compound); “N” (1 mg/ml, 10µl test compound). For the same compound, the “(c) Increase in signal: background ratio” value is, setting by setting: (0.01 mg/ml, 10µl test compound) “N (N = no)”; (0.1 mg/ml, 10µl test compound) “Y (Column (c) shows whether there was an increase in the signal:background ratio by over 25% of the control value (Y = yes)”; (1 mg/ml, 10µl test compound) “Y (Column (c) shows whether there was an increase in the signal:background ratio by over 25% of the control value (Y = yes)”. Besides, the “(d) Signal: Background: ratio (control = with no enhancer)” value runs as follows: under setting [1], 3.0; under setting [2], 4.6; under setting [3], 5.0 (2.5).

Turning to `c1ccc(B2OCCCO2)cc1` [Compound 1012, 2-phenyl-1,3,2-dioxaborinane], the “(a) Decrease in background (without HRP with test cpd.)” value by setting is: (0.01 mg/ml, 10µl test compound) “N”; (0.1 mg/ml, 10µl test compound) “N”; (1 mg/ml, 10µl test compound) “Y”. Besides, the “(b) Increase in signal” value is, setting by setting: (0.01 mg/ml, 10µl test compound) “Y”; (0.1 mg/ml, 10µl test compound) “N”; (1 mg/ml, 10µl test compound) “N”. Also, the “(c) Increase in signal: background ratio” value runs as follows: (0.01 mg/ml, 10µl test compound) “N (N = no)”; (0.1 mg/ml, 10µl test compound) “N (N = no)”; (1 mg/ml, 10µl test compound) “Y (Column (c) shows whether there was an increase in the signal:background ratio by over 25% of the control value (Y = yes)”. The “(d) Signal: Background: ratio (control = with no enhancer)” value under setting [1] is listed as 2.2, the “(d) Signal: Background: ratio (control = with no enhancer)” value under setting [2] was 2.2 and the “(d) Signal: Background: ratio (control = with no enhancer)” value under setting [3] is on record as 17.1 (2.5).

For the compound `COc1ccc(Br)cc1B(O)O` [Compound 1003, 5-bromo-2-methoxybenzeneboronic acid], the “(a) Decrease in background (without HRP with test cpd.)” value by setting is: (0.01 mg/ml, 10µl test compound) “Y”; (0.1 mg/ml, 10µl test compound) “Y”; (1 mg/ml, 10µl test compound) “Y”. Moreover, the “(b) Increase in signal” value reads like this: (0.01 mg/ml, 10µl test compound) “N”; (0.1 mg/ml, 10µl test compound) “N”; (1 mg/ml, 10µl test compound) “N”. Besides, the “(c) Increase in signal: background ratio” value is, setting by setting: (0.01 mg/ml, 10µl test compound) “Y (Column (c) shows whether there was an increase in the signal:background ratio by over 25% of the control value (Y = yes)”; (0.1 mg/ml, 10µl test compound) “Y (Column (c) shows whether there was an increase in the signal:background ratio by over 25% of the control value (Y = yes)”; (1 mg/ml, 10µl test compound) “N (N = no)”. In addition, the “(d) Signal: Background: ratio (control = with no enhancer)” value is 8.6 under setting [1], 12.1 under setting [2] and 2.6 (2.3) under setting [3].

With `Clc1cc(Cl)cc(OB(Oc2cc(Cl)cc(Cl)c2)c2cc(Cl)cc(Cl)c2)c1` [Compound 1040, di-(3',5'-dichlorophenoxy)-3,5-dichlorophenylborane], the “(a) Decrease in background (without HRP with test cpd.)” value is on record as “Y”; the “(b) Increase in signal” value was “N”; the “(d) Signal: Background: ratio (control = with no enhancer)” value was 4.7 (4.5) and 3.9 (2.9).

Take `OB(O)c1cccc2c1Sc1ccccc1S2` [Compound 1007, 1-thianthreneboronic acid]: the “(a) Decrease in background (without HRP with test cpd.)” value is on record as “Y” (0.01 mg/ml, 10µl test compound); “Y” (0.1 mg/ml, 10µl test compound); “Y” (1 mg/ml, 10µl test compound). In addition, the “(b) Increase in signal” value is “N” (0.01 mg/ml, 10µl test compound); “N” (0.1 mg/ml, 10µl test compound); “N” (1 mg/ml, 10µl test compound). Also, the “(c) Increase in signal: background ratio” value reads like this: (0.01 mg/ml, 10µl test compound) “N (N = no)”; (0.1 mg/ml, 10µl test compound) “N (N = no)”; (1 mg/ml, 10µl test compound) “N (N = no)”. The “(d) Signal: Background: ratio (control = with no enhancer)” value is, setting by setting: under setting [1], 2.1; under setting [2], 2.5; under setting [3], 1.8 (2.1).

Take `O=C(O)c1ccc(B(O)O)cc1[N+](=O)[O-]` [Compound 1045, 4-carboxy-3-nitrophenylboronic acid]: the “(a) Decrease in background (without HRP with test cpd.)” value by setting is: (0.01 mg/ml, 10µl test compound) “Y”; (0.1 mg/ml, 10µl test compound) “Y”; (1 mg/ml, 10µl test compound) “Y”. In addition, the “(b) Increase in signal” value runs as follows: (0.01 mg/ml, 10µl test compound) “N”; (0.1 mg/ml, 10µl test compound) “Y”; (1 mg/ml, 10µl test compound) “N”. The “(c) Increase in signal: background ratio” value reads like this: (0.01 mg/ml, 10µl test compound) “N (N = no)”; (0.1 mg/ml, 10µl test compound) “Y (Column (c) shows whether there was an increase in the signal:background ratio by over 25% of the control value (Y = yes)”; (1 mg/ml, 10µl test compound) “Y (Column (c) shows whether there was an increase in the signal:background ratio by over 25% of the control value (Y = yes)”. Moreover, the “(d) Signal: Background: ratio (control = with no enhancer)” value is reported as 2.2 (2.0) under setting [1], 18.1 (2.8) under setting [2] and 68.5 (4.5) under setting [3].

Consider boraxarophenanthrene [Compound 1014], for which the “(a) Decrease in background (without HRP with test cpd.)” value runs as follows: (0.01 mg/ml, 10µl test compound) “Y”; (0.1 mg/ml, 10µl test compound) “Y”; (1 mg/ml, 10µl test compound) “Y”. Besides, the “(b) Increase in signal” value (0.01 mg/ml, 10µl test compound) was “N”; the “(b) Increase in signal” value (0.1 mg/ml, 10µl test compound) is listed as “N”; the “(b) Increase in signal” value (1 mg/ml, 10µl test compound) was “N”. The “(c) Increase in signal: background ratio” value is, setting by setting: (0.01 mg/ml, 10µl test compound) “N (N = no)”; (0.1 mg/ml, 10µl test compound) “N (N = no)”; (1 mg/ml, 10µl test compound) “N (N = no)”. The “(d) Signal: Background: ratio (control = with no enhancer)” value runs as follows: under setting [1], 2.3; under setting [2], 1.6; under setting [3], 1.8 (2.5).

`CCC(C)CNc1cccc(B(O)O)c1` (stereo not drawn) [Compound 1032, 3-(2'-methylbutylamino)phenylboronic acid]: for the setting “0.01 mg/ml, 10µl test compound”, the “(a) Decrease in background (without HRP with test cpd.)” value is recorded as “Y”; the “(b) Increase in signal” value is “N”; the “(c) Increase in signal: background ratio” value was “N (N = no)”. Where the note is “0.1 mg/ml, 10µl test compound”, the “(a) Decrease in background (without HRP with test cpd.)” value is on record as “Y”; the “(b) Increase in signal” value is “N”; the “(c) Increase in signal: background ratio” value was “N (N = no)”. Further, the “(d) Signal: Background: ratio (control = with no enhancer)” value under setting [2] was 3.4 (2.9). In addition, where the note is “1 mg/ml, 10µl test compound”, the “(a) Decrease in background (without HRP with test cpd.)” value was “Y”; the “(b) Increase in signal” value is “N”; the “(c) Increase in signal: background ratio” value is listed as “N (N = no)”.

`OB(O)c1cc(Cl)ccc1Cl` [Compound 1023, 2,5-dichlorophenylboronic acid]: the “(a) Decrease in background (without HRP with test cpd.)” value runs as follows: (0.01 mg/ml, 10µl test compound) “Y”; (0.1 mg/ml, 10µl test compound) “Y”; (1 mg/ml, 10µl test compound) “Y”. Besides, the “(b) Increase in signal” value is “N” (0.01 mg/ml, 10µl test compound); “N” (0.1 mg/ml, 10µl test compound); “N” (1 mg/ml, 10µl test compound). The “(c) Increase in signal: background ratio” value is “N (N = no)” (0.01 mg/ml, 10µl test compound); “N (N = no)” (0.1 mg/ml, 10µl test compound); “N (N = no)” (1 mg/ml, 10µl test compound). Moreover, the “(d) Signal: Background: ratio (control = with no enhancer)” value under setting [2] is listed as 3.1 (2.7).

Regarding `OB(O)c1c(Cl)cc(Cl)cc1Cl` [Compound 1020, 2,4,6-trichlorophenylboronic acid], the “(a) Decrease in background (without HRP with test cpd.)” value (0.01 mg/ml, 10µl test compound) is “Y”; the “(a) Decrease in background (without HRP with test cpd.)” value (0.1 mg/ml, 10µl test compound) is listed as “Y”; the “(a) Decrease in background (without HRP with test cpd.)” value (1 mg/ml, 10µl test compound) was “Y”. Further, the “(b) Increase in signal” value reads like this: (0.01 mg/ml, 10µl test compound) “N”; (0.1 mg/ml, 10µl test compound) “N”; (1 mg/ml, 10µl test compound) “N”. In addition, the “(c) Increase in signal: background ratio” value is, setting by setting: (0.01 mg/ml, 10µl test compound) “N (N = no)”; (0.1 mg/ml, 10µl test compound) “N (N = no)”; (1 mg/ml, 10µl test compound) “N (N = no)”. Moreover, the “(d) Signal: Background: ratio (control = with no enhancer)” value under setting [1] is 2.2 (2.0).

`OB(O)c1cc(N=Nc2cccc(C(F)(F)F)c2)ccc1O` [Compound 1005]: the “(a) Decrease in background (without HRP with test cpd.)” value was “N” (0.01 mg/ml, 10µl test compound); “N” (0.1 mg/ml, 10µl test compound); “Y” (1 mg/ml, 10µl test compound). Further, the “(b) Increase in signal” value (0.01 mg/ml, 10µl test compound) is “Y”; the “(b) Increase in signal” value (0.1 mg/ml, 10µl test compound) is given as “Y”; the “(b) Increase in signal” value (1 mg/ml, 10µl test compound) was “N”. The “(c) Increase in signal: background ratio” value was “Y (Column (c) shows whether there was an increase in the signal:background ratio by over 25% of the control value (Y = yes)” (0.01 mg/ml, 10µl test compound); “Y (Column (c) shows whether there was an increase in the signal:background ratio by over 25% of the control value (Y = yes)” (0.1 mg/ml, 10µl test compound); “N (N = no)” (1 mg/ml, 10µl test compound). Also, the “(d) Signal: Background: ratio (control = with no enhancer)” value under setting [1] is recorded as 2.7, the “(d) Signal: Background: ratio (control = with no enhancer)” value under setting [2] is on record as 2.9 and the “(d) Signal: Background: ratio (control = with no enhancer)” value under setting [3] was 2.4 (2.1).

(Values after patent publication EP0626016B1, “[…] […]” (BRITISH TECHNOLOGY GROUP LIMITED, priority 1992, dated 1993).)
